These results are taken from patent US9962369B2, “Methods and compositions for transdermal delivery” (SPRAYABLE HOLDINGS, INC., priority 2014, dated 2018).

Series [1] can be described thus: Transdermal delivery of melatonin: plasma level of melatonin after applying composition to skin of a subject. To be noted: control 2.0 ml of […] melatonin suspension in water, plasma level at 1, 2, 4, 8 hours.
The subject of series [2] is human skin tissue. As to the kind of experiment: Penetration rate of AI compound in AI-helper composition through human skin in vitro, modified Franz cells. Format: in vitro ADME. To be noted: for Skin penetration rate of alpha-lipoic acid: 20° C.; for Skin penetration rate of Al compound: Al compound 0.5% w/v; for Skin penetration rate of Al compound / Skin penetration rate of AI compound: 25 °C. The method, then: Penetration rate of AI compound in the AI-helper composition through human skin were measured in vitro by modified Franz cells. A Franz cell had two chambers: the top sample chamber and the bottom receiving chamber. The human skin tissue (450-500 μm thick) that separated the top and the receiving chambers was isolated from the anterior or posterior thigh areas.

Where [3] appears, read: 0.3 mL of 7% helper ester + 1% melatonin in water on skin of the back (20 cm×20 cm).
The mark [4] stands for this setting: 0.60 mL of 7% helper ester + 0.5% melatonin in water on skin of the back (20 cm×20 cm).
Where [5] appears, read: 2-(Diethylamino)ethyl 2-(4-isobutylphenyl)propionate hydrochloride 6% w/v, water.
The mark [6] stands for this setting: D-Phenylalanine isopropyl ester hydrochloride 6% w/v, water.
The mark [7] stands for this setting: Dialkylaminoalkyl 2-(4-isobutylphenyl)propionate: None.
[8] abbreviates: L-Phenylalanine isopropyl ester hydrochloride 6% w/v, water.
[9] abbreviates: no isoleucine ester (None), AI compound 0.5 % w/v in water.
Where [10] appears, read: no leucine ester (None), AI compound 0.5 % w/v in water.
Where [11] appears, read: no tryptophan ester (None), AI compound 0.5 % w/v in water.
Setting [12] is: with D-isoleucine isopropyl ester hydrochloride 6 % w/v in water, AI compound 0.5 % w/v.
The mark [13] stands for this setting: with D-leucine isopropyl ester hydrochloride 6 % w/v in water, AI compound 0.5 % w/v.
Setting [14] is: with D-tryptophan isopropyl ester hydrochloride 6 % w/v in water, AI compound 0.5 % w/v.
Where [15] appears, read: with L-isoleucine isopropyl ester hydrochloride 6 % w/v in water, AI compound 0.5 % w/v.
The mark [16] stands for this setting: with L-leucine isopropyl ester hydrochloride 6 % w/v in water, AI compound 0.5 % w/v.
Setting [17] is: with L-tryptophan isopropyl ester hydrochloride 6 % w/v in water, AI compound 0.5 % w/v.

As to `CCCOC(=O)[C@@H](N)Cc1ccc(O)cc1` [Tyrosine propyl ester], the “transdermal delivery of melatonin compared to control composition (A)” value in series [1] (setting [3]) is “more efficient and effective transdermal delivery of melatonin”.

As to `CCCCCCOC(=O)[C@@H](N)CC(C)C` [Leucine hexyl ester], the “transdermal delivery of melatonin compared to control composition (A)” value in series [1] (setting [4]) was “more efficient and effective transdermal delivery of melatonin”.

With `CC(C)OC(=O)[C@@H](N)Cc1ccc(O)cc1` [Tyrosine isopropyl ester], in series [1] (setting [3]), the “transdermal delivery of melatonin compared to control composition (A)” value is “more efficient and effective transdermal delivery of melatonin”.

For `CC(C)OC(=O)[C@@H]1CCCN1` [Proline isopropyl ester], in series [1] (setting [4]), the “transdermal delivery of melatonin compared to control composition (A)” value was “more efficient and effective transdermal delivery of melatonin”.

For the molecule `CCCCCCCCOC(=O)[C@@H](N)Cc1ccccc1` [Phenylalanine octyl ester], in series [1] (setting [4]), the “transdermal delivery of melatonin compared to control composition (A)” value was “more efficient and effective transdermal delivery of melatonin”.

On to `CCCCCOC(=O)[C@@H](N)Cc1ccc(O)cc1` [Tyrosine pentyl ester], for which the “transdermal delivery of melatonin compared to control composition (A)” value in series [1] (setting [3]) is “more efficient and effective transdermal delivery of melatonin”.

Take `CC(C)C[C@H](N)C(=O)OC(C)C` [Leucine isopropyl ester]: the “transdermal delivery of melatonin compared to control composition (A)” value in series [1] (setting [4]) was “more efficient and effective transdermal delivery of melatonin”.

Turning to `COC(=O)[C@@H]1CCCN1` [Proline methyl ester], in series [1] (setting [4]), the “transdermal delivery of melatonin compared to control composition (A)” value is “more efficient and effective transdermal delivery of melatonin”.

`O=C(O)CCCCC1CCSS1` (stereo not drawn) [Alpha-lipoic acid]: the “Skin penetration rate of alpha-lipoic acid” value was found to be 0.071 ± 0.063 μg/cm^2/h in series [2] (0.5% alpha-lipoic acid without helper esters); 33.928 ± 2.876 μg/cm^2/h in series [2] (alpha-lipoic acid 0.5% w/v, Tryptophan isopropyl ester•HA 6% w/v, HA = 1/2H2SO4, water); 34.321 ± 2.867 μg/cm^2/h in series [2] (alpha-lipoic acid 0.5% w/v, Tryptophan isopropyl ester•HA 6% w/v, HA = 1/3H3PO4, water); 34.691 ± 3.511 μg/cm^2/h in series [2] (alpha-lipoic acid 0.5% w/v, Tryptophan isopropyl ester•HA 6% w/v, HA = 2/3H3PO4, water); 35.006 ± 2.892 μg/cm^2/h in series [2] (alpha-lipoic acid 0.5% w/v, Tryptophan isopropyl ester•HA 6% w/v, HA = Acetic acid, water); 34.665 ± 3.019 μg/cm^2/h in series [2] (alpha-lipoic acid 0.5% w/v, Tryptophan isopropyl ester•HA 6% w/v, HA = Benzoic acid, water). In addition, the “Skin penetration rate of alpha-lipoic acid” value in series [2] (alpha-lipoic acid 0.5% w/v, Tryptophan isopropyl ester•HA 6% w/v, HA = Butyric acid, water) stood at 35.178 ± 3.598 μg/cm^2/h; in series [2] (alpha-lipoic acid 0.5% w/v, Tryptophan isopropyl ester•HA 6% w/v, HA = Citric acid, water) it was 35.371 ± 3.587 μg/cm^2/h; in series [2] (alpha-lipoic acid 0.5% w/v, Tryptophan isopropyl ester•HA 6% w/v, HA = H2SO4, water) it was 33.780 ± 2.891 μg/cm^2/h; in series [2] (alpha-lipoic acid 0.5% w/v, Tryptophan isopropyl ester•HA 6% w/v, HA = HBr, water), 35.211 ± 3.285 μg/cm^2/h; in series [2] (alpha-lipoic acid 0.5% w/v, Tryptophan isopropyl ester•HA 6% w/v, HA = HCl, water) it was 35.456 ± 2.476 μg/cm^2/h; in series [2] (alpha-lipoic acid 0.5% w/v, Tryptophan isopropyl ester•HA 6% w/v, HA = HF, water), 34.673 ± 3.156 μg/cm^2/h. Moreover, the “Skin penetration rate of alpha-lipoic acid” value came out at 34.467 ± 2.583 μg/cm^2/h in series [2] (alpha-lipoic acid 0.5% w/v, Tryptophan isopropyl ester•HA 6% w/v, HA = HI, water) and 35.007 ± 2.879 μg/cm^2/h in series [2] (alpha-lipoic acid 0.5% w/v, Tryptophan isopropyl ester•HA 6% w/v, HA = Lactic acid, water). Further, the “Skin penetration rate of Al compound” value in series [2] (setting [5]) is listed as 30.478 ± 2.982 μg/cm^2/h; in series [2] (setting [6]) it was 31.796 ± 3.176 μg/cm^2/h; in series [2] (setting [7]) it was 0.056 ± 0.032 μg/cm^2/h; in series [2] (setting [8]) it was 32.878 ± 3.568 μg/cm^2/h; in series [2] (Phenylalanine ester: None), 0.058 ± 0.047 μg/cm^2/h. Moreover, the “Skin penetration rate of AI compound” value was found to be 0.057 ± 0.036 μg/cm^2/h in series [2] (setting [9]); 0.051 ± 0.023 μg/cm^2/h in series [2] (setting [10]); 0.071 ± 0.063 μg/cm^2/h in series [2] (setting [11]); 28.013 ± 2.078 μg/cm^2/h in series [2] (setting [12]); 27.476 ± 2.116 μg/cm^2/h in series [2] (setting [13]); 35.456 ± 2.476 μg/cm^2/h in series [2] (setting [14]). Also, the “Skin penetration rate of AI compound” value in series [2] (setting [15]) is 28.897 ± 2.126 μg/cm^2/h; in series [2] (setting [16]), 28.377 ± 2.378 μg/cm^2/h; in series [2] (setting [17]), 36.378 ± 2.978 μg/cm^2/h.

As for `N[C@@H](CCC(=O)N[C@@H](CS)C(=O)NCC(=O)O)C(=O)O` [Glutathione], the “Skin penetration rate of Al compound” value in series [2] (setting [5]) came out at 16.356 ± 3.011 μg/cm^2/h; in series [2] (setting [6]) it was 17.526 ± 2.451 μg/cm^2/h; in series [2] (setting [7]) it was 0.012 ± 0.010 μg/cm^2/h; in series [2] (setting [8]), 17.358 ± 2.259 μg/cm^2/h; in series [2] (Phenylalanine ester: None), 0.016 ± 0.009 μg/cm^2/h. Besides, the “Skin penetration rate of AI compound” value was 0.013 ± 0.011 μg/cm^2/h in series [2] (setting [9]); 0.011 ± 0.008 μg/cm^2/h in series [2] (setting [10]); 0.008 ± 0.013 μg/cm^2/h in series [2] (setting [11]); 14.581 ± 2.183 μg/cm^2/h in series [2] (setting [12]); 14.121 ± 2.131 μg/cm^2/h in series [2] (setting [13]); 18.126 ± 3.451 μg/cm^2/h in series [2] (setting [14]). In addition, the results for the “Skin penetration rate of AI compound” value in series [2] (setting [15]), in series [2] (setting [16]) and in series [2] (setting [17]) were 14.698 ± 2.321 μg/cm^2/h, 14.128 ± 2.119 μg/cm^2/h and 17.978 ± 3.479 μg/cm^2/h, respectively.

Take `O=C1O[C@H]([C@@H](O)CO)C(O)=C1O` [Vitamin C]: the “Skin penetration rate of Al compound” value in series [2] (setting [5]) is 10.112 ± 2.322 μg/cm^2/h; in series [2] (setting [6]), 10.378 ± 2.155 μg/cm^2/h; in series [2] (setting [7]) it was 0.016 ± 0.012 μg/cm^2/h; in series [2] (setting [8]), 10.301 ± 2.022 μg/cm^2/h; in series [2] (Phenylalanine ester: None) it was 0.017 ± 0.015 μg/cm^2/h. The “Skin penetration rate of AI compound” value is 0.011 ± 0.008 μg/cm^2/h in series [2] (setting [9]); 0.008 ± 0.010 μg/cm^2/h in series [2] (setting [10]); 0.007 ± 0.013 μg/cm^2/h in series [2] (setting [11]); 8.526 ± 2.271 μg/cm^2/h in series [2] (setting [12]); 8.256 ± 2.078 μg/cm^2/h in series [2] (setting [13]); 11.136 ± 2.385 μg/cm^2/h in series [2] (setting [14]). Also, the “Skin penetration rate of AI compound” value in series [2] (setting [15]) amounted to 8.369 ± 2.102 μg/cm^2/h; in series [2] (setting [16]), 8.378 ± 2.152 μg/cm^2/h; in series [2] (setting [17]), 11.345 ± 2.612 μg/cm^2/h.

For `Cc1ncc(CO)c(CO)c1O.Cl` [Vitamin B6], the “Skin penetration rate of Al compound” value in series [2] (setting [6]) was found to be 16.531 ± 2.106 μg/cm^2/h; in series [2] (setting [7]), 0.023 ± 0.027 μg/cm^2/h; in series [2] (setting [8]), 16.751 ± 2.012 μg/cm^2/h; in series [2] (Phenylalanine ester: None), 0.057 ± 0.011 μg/cm^2/h. Further, the “Skin penetration rate of AI compound” value in series [2] (setting [9]) was found to be 0.022 ± 0.017 μg/cm^2/h; in series [2] (setting [10]) it was 0.029 ± 0.035 μg/cm^2/h; in series [2] (setting [11]), 0.059 ± 0.031 μg/cm^2/h; in series [2] (setting [12]) it was 13.468 ± 2.211 μg/cm^2/h; in series [2] (setting [14]) it was 17.131 ± 2.332 μg/cm^2/h; in series [2] (setting [15]), 13.632 ± 2.125 μg/cm^2/h. Besides, in series [2] (setting [17]), the “Skin penetration rate of AI compound” value was 17.251 ± 2.415 μg/cm^2/h.

Take Vitamin E: the “Skin penetration rate of Al compound” value is 19.783 ± 4.025 μg/cm^2/h in series [2] (setting [5]); 21.363 ± 2.015 μg/cm^2/h in series [2] (setting [6]); 0.012 ± 0.006 μg/cm^2/h in series [2] (setting [7]); 21.357 ± 3.120 μg/cm^2/h in series [2] (setting [8]); 0.016 ± 0.011 μg/cm^2/h in series [2] (Phenylalanine ester: None). Besides, the “Skin penetration rate of AI compound” value in series [2] (setting [9]) amounted to 0.016 ± 0.009 μg/cm^2/h; in series [2] (setting [10]), 0.012 ± 0.007 μg/cm^2/h; in series [2] (setting [11]), 0.008 ± 0.008 μg/cm^2/h; in series [2] (setting [12]) it was 19.321 ± 3.012 μg/cm^2/h; in series [2] (setting [13]) it was 19.723 ± 3.046 μg/cm^2/h; in series [2] (setting [14]) it was 22.783 ± 3.145 μg/cm^2/h. In addition, the “Skin penetration rate of AI compound” value in series [2] (setting [15]) was found to be 19.412 ± 3.076 μg/cm^2/h; in series [2] (setting [16]) it was 19.611 ± 3.126 μg/cm^2/h; in series [2] (setting [17]) it was 23.657 ± 4.120 μg/cm^2/h.
